The source of these data is patent publication US20200231685A1, “CONJUGATES FOR TREATING INFLAMMATORY DISEASE AND IDENTIFICATION OF PATIENTS LIKELY TO BENEFIT FROM SUCH TREATMENT” (The University of Bristol, priority 2013, published 2020).

The subject of experiment [1] is Experimental Autoimmune Uveitis (EAU). It counts as in vivo, mouse. Conditions: Day 18; PMA and ionomycin 4 hours.
For the next experiment, the system named is Th17 (CCR6+) cells. Kind of experiment: Intracellular IL-17 / IFN-γ expression by flow cytometry in human Th17 cultures. The format is cell-based. The source says:
Absolute expression was plotted on a log2 scale colour coded from low to high expression. […] All data are represented as mean±SEM.
CCR6 positive and CCR6 negative CD4^+ T cells were purified and cultured in the presence of polarising cytokines for two weeks. […] Intracellular cytokines were quantified by flow cytometry (FIG. 23A) and percentage suppression calculated in relation to an untreated control (FIG. 23B). Data represents the mean expression of three to four normal volunteers, with error expressed as standard deviation.
Therefore, to determine whether in vitro, human CD4+Th17 T cells were responsive to glucocorticoids, we generated an IL-17 secreting CD4+ T cell subset using the innate expression of CCR6. […] As a result of glucocorticoid binding the glucocorticoid receptor (GR), the GR translocates to the nucleus and binds to glucocorticoid-response elements within the DNA. […] We then compared the translocation of the GR in Th17 and Th0 cells.
Cell Cultures. Murine Naive T cells were obtained from lymph nodes and spleens of OT-II/3A9 mice using CD4 positive selection kits following the manufacturer's instructions (Miltenyi Biotech). Splenocytes from respective wild-type mice were irradiated and mixed with the CD4^+ T cells at a 1:10 ratio. […] All cells were kept in a 37° C., 5% CO2 humidified incubator. Cells were used after two rounds of activation. Human peripheral CD4^+CCR6^− (Th0) and CD4^+CCR6^+ (Th17) cells were FACS sorted, resuspended to 2×10^6cells/ml in complete RPMI-1640 (Invitrogen) supplemented with 10% FCS, L-glutamine and Penicillin/streptomycin (all PAA Laboratories Ltd, UK), stimulated with plate-bound 5 μg/ml anti-CD3 and 5 μg/ml anti-CD28 antibodies (eBioscience, US) (Th0) or with plate-bound antibodies and a polarizing cytokine cocktail of 20 ng/ml IL-6, 10 ng/ml IL-23, 10 ng/ml IL-1β (R&D Systems, US), 100 ng/ml anti-IFN-γ, 100 ng/ml anti-IL-4 (eBioscience, US) (Th17) for 3 days. […]
On the technique in general: In flow cytometry, cells or beads pass a laser one at a time.

The next experiment has as its system CD4+ T cells. Kind of experiment: Inhibition of isolated CD4+ T cell proliferation (tritiated thymidine incorporation). The format is cell-based, human. As to the method: Proliferation was measured by tritiated thymidine incorporation (ccpm). Data represents the mean of two normal volunteers, with error expressed as standard deviation.
T Cell Proliferation Assays. T cell proliferation was measured by pulsing with 18.5 kBq [^3H] thymidine (GE Healthcare, US) per well for the final 12 hours of cultures and determining thymidine uptake in counts per minute (c.p.m).

The test system of a further experiment is Th0 (CCR6-) cells. Kind of experiment: Intracellular IFNγ expression by flow cytometry in human Th0 cultures. The format is cell-based. The following applies: 24 hrs incubation. An excerpt:
FIGS. 23A-23B show suppression of IL-17A in human Th17 (CCR6+) cells and IFNγ cytokine production in human Th0 (CCR6^−) and Th17 cells. CCR6 positive and CCR6 negative CD4^+ T cells were purified and cultured in the presence of polarising cytokines for two weeks. […] Intracellular cytokines were quantified by flow cytometry (FIG. 23A) and percentage suppression calculated in relation to an untreated control (FIG. 23B). Data represents the mean expression of three to four normal volunteers, with error expressed as standard deviation.
Cell Cultures. Murine Naive T cells were obtained from lymph nodes and spleens of OT-II/3A9 mice using CD4 positive selection kits following the manufacturer's instructions (Miltenyi Biotech). Splenocytes from respective wild-type mice were irradiated and mixed with the CD4^+ T cells at a 1:10 ratio. […] All cells were kept in a 37° C., 5% CO2 humidified incubator. Cells were used after two rounds of activation. […]

Molecules are shown by their SMILES.

`C[C@@H]1C[C@H]2[C@@H]3CCC4=CC(=O)C=C[C@]4(C)[C@@]3(F)[C@@H](O)C[C@]2(C)[C@@]1(O)C(=O)CO` [Dex, dexamethasone]: the “suppression of IFN-γ expression in eye infiltrating CD4+ cells” value in experiment [1] came out at 45%.

As for `C=CC[C@@H]1/C=C(\C)C[C@H](C)C[C@H](OC)[C@H]2O[C@@](O)(C(=O)C(=O)N3CCCC[C@H]3C(=O)O[C@H](/C(C)=C/[C@@H]3CC[C@@H](O)[C@H](OC)C3)[C@H](C)[C@@H](O)CC1=O)[C@H](C)C[C@@H]2OC` [tacrolimus], in the experiment with Th17 (CCR6+) cells (24 hrs incubation), the “suppression of IFNγ production in Th17 cells” value is “equally suppress” and the “suppression of IL-17A production in Th17 (CCR6+) cells” value is given as “equally suppress”. Also, the “dose required for cytokine suppression, less than cyclosporine A” value in the experiment on Th17 (CCR6+) cells (IL-17 in Th17, IFNγ in Th17 and Th0 cells) turned out to be 20 ×. Further, in the experiment on CD4+ T cells, the “concentration for full inhibition of CD4+ cell proliferation, lower compared with cyclosporine A” value is on record as 20 fold and the “dose achieving the same inhibition of CD4+ T cell proliferation” value was 10 ng/mL. The “suppression of IFNγ production in Th0 (CCR6-) cells” value in the experiment on Th0 (CCR6-) cells is “equally suppress”.
